Here are results for one compound from patent US20240041830A1, “CIRCULATING BIOMARKERS OF RESPONSE TO PD-1/PD-L1 BLOCKADE AND GSK-3 INHIBITION” (Brown University, priority 2022, published 2024).

Assay [1] deals with HCT116. As to the kind of experiment: CellTiter Glo cell viability. The format is cell-based. To be noted: Homo sapiens, HCT-116, treatment up to 50 μM for seventy-two hours. How it is done: (§1) Measurement of cell viability. Cells were seeded at a density of 3×10^3 cells per well in a 96-well plate (Greiner Bio-One, Monroe, NC, USA). Cell viability was assessed using the CellTiter Glo assay (Promega, Madison, WI, USA). Cells were mixed with 25 μL of CellTiter-Glo reagents in 100 μL of culture volume, and bioluminescence imaging was measured using the Xenogen IVIS imager (Caliper Life Sciences, Waltham, MA). The percent of cell viability was determined by normalizing the luminescence signal to control wells. Dose-response curves were generated, and the half-maximal inhibitory concentration (IC50) was calculated using Graph-Pad Prism (RRID: SCR_002798) version 9.2.0. For IC50 generation, concentrations were log-transformed, and data were then normalized to control, and a log (inhibitor) versus response (three parameters) test was used. A panel of human colorectal cell lines was chosen to provide a varied mutational background (TP53, KRAS, BRAF, TRK, APC, PIK3CA). Cells were treated with elraglusib at doses up to 50 μM for seventy-two hours to determine IC10, IC30, IC50, and IC70. Cytokine, chemokine, and growth factor levels were analyzed in the tumor cell culture supernatants after treatment at IC10, IC30, IC50, and IC70 for forty-eight hours using a Luminex 200 multiplexing instrument. Co-culture experiments were conducted with GFP+ SW480 colorectal cancer cells and either NK-92 natural killer cells or TALL-104 T cells at various effector/target ratios in a 48-well plate, in the presence or absence of elraglusib. The inventors performed cell titer glo analysis to determine IC doses after treatment up to 50 μM for seventy-two hours. See TABLE below of IC50 values for the three cell lines.
On the technique in general: ATP-based viability assays read luminescence as a measure of living cells.

For assay [2], the system named is HT29. As to the kind of experiment: CellTiter Glo cell viability. The assay is classed as cell-based. To be noted: Homo sapiens, HT-29, treatment up to 50 μM for seventy-two hours. How it is done:
as §1

The test system of assay [3] is KM12C. As to the kind of experiment: CellTiter Glo cell viability. The format is cell-based. As to conditions: Homo sapiens, treatment up to 50 μM for seventy-two hours. The method, then: as §1
In assay [4] the test system is NK-92. The experiment in a line: 10× single-cell sequencing. The format is cell-based, human. As to conditions: 1 μM, twenty-four hours vs DMSO. How it is done: (§2) Single-cell RNA sequencing. Single cells were captured and 3′ single-cell gene expression libraries were conducted (Next GEM v3.1) using the 10× Genomics Chromium system by SingulOmics (SingulOmics, New York, NY, USA). Gene expression libraries were sequenced with ˜200 million PE150 reads per sample on Illumina (RRID: SCR_016387) NovaSeq (Illumina, Inc., San Diego, CA, USA). After sequencing, clean reads were then analyzed with human reference genome GRCh38 using Cell Ranger v6.1.2 (RRID: SCR_017344, 10× Genomics, Pleasanton, CA, USA). Data were analyzed and visualized using Loupe Browser (RRID: SCR_018555, 10× Genomics, Pleasanton, CA, USA).
(§3) To determine if there was any heterogeneity in response to drug treatment, the inventors employed a 10× single-cell sequencing analysis on both immune cell lines (TALL-104, NK-92) treated with low-dose 1 μM elraglusib or vehicle control (DMSO) for twenty-four hours. Samples clustered by cell type when aggregate data were visualized using a t-SNE plot (FIG. 3G). […] The inventors noted an increase in immune cell attractant CCL4 in the NK-92 cells and an increase in immune cell chemoattractant CXCR4 in the TALL-104 cells.

Assay [5] deals with TALL-104. The experiment in a line: 10× single-cell sequencing. As to conditions: 1 μM, twenty-four hours vs DMSO. The format is cell-based, human. How it is done: as §2, §3

For the compound `Cn1cc(C2=C(c3coc4ccc(F)cc34)C(=O)NC2=O)c2cc3c(cc21)OCO3` [elraglusib], the IC50 – broadly, the concentration that gives 50% inhibition – in assay [1] came out at 370 nM; in assay [2], 410 nM; in assay [3], 200 nM. Moreover, in assay [4], the CCL4 expression result is on record as “increase”. Also, the CD69 expression result in assay [4] and in assay [5] was “increase” throughout. In addition, the CHI3L1 expression result in assay [4] and in assay [5] was “decrease” throughout. Also, in assay [5], the CXCR4 expression entry is “increase”.
